# Target: T1, p53 Y220C (Homo sapiens, UniProt P04637, Y220C)
# T1 construct: The recombinant protein was a truncation mutant containing only amino acids 94-312 of p53; made in house; host or cells: E. coli
# Assay: In vitro DNA binding activity assay (HTRF / TR-FRET): stabilization of p53 Y220C and increase of its DNA binding activity
# Assay type: biochemical
# Details: recombinant His-tagged p53 Y220C DNA binding domain (aa 94-312), biotin-labeled consensus DNA, incubated at 27° C. or 29° C. for 60 min
# Procedure, shortened: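 Compounds from 4.5 mM DMSO stocks, 3-fold serial dilutions; room-temperature incubations of 15 and 20 min. SC150 = concentration raising DNA binding by 50% over no-compound control.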
# T1 sequence (P04637 94-312, change not shown): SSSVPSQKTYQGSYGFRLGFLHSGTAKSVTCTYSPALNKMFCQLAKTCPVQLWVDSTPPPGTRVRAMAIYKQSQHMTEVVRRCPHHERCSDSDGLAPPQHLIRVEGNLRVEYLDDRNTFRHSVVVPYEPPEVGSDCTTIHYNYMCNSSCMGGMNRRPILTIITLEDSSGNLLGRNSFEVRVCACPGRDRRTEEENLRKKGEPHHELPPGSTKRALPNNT
row,SC150 (concentration of the compound required to increase the DNA binding activity by 50%),Structure (SMILES)
1,+ (+ = 0 μM ≤ SC150 < 0.05 μM),"CCC(=O)OC(COC)CN1CCC(Nc2cccc3c2cc(C#CCNc2ccc(S(N)(=O)=O)cc2OC)n3CC(F)(F)F)CC1 (stereo not shown) [Compound 610A, 1-methoxy-3-{4-[(2-{3-[(2-methoxy-4-sulfamoylphenyl)amino]prop-1-yn-1-yl}-1-(2,2,2-trifluoroethyl)-1H-indol-4-yl)amino]piperidin-1-yl} propan-2-yl propanoate]"
2,+ (+ = 0 μM ≤ SC150 < 0.05 μM),"COc1cc(S(C)(=O)=O)ccc1NCC#Cc1cc2c(NC3CCN(C[C@H](O)CO)CC3)cccc2n1CC(F)(F)F [Compound 558A, (2S)-3-{4-[(2-{3-[(4-methanesulfonyl-2-methoxyphenyl)amino]prop-1-yn-1-yl}-1-(2,2,2-trifluoroethyl)-1H-indol-4-yl)amino]piperidin-1-yl}propane-1,2-diol]"
3,+ (+ = 0 μM ≤ SC150 < 0.05 μM),"COc1cc(S(N)(=O)=O)ccc1NCC#Cc1cc2c(N[C@@H]3CCO[C@@H](C)C3)cccc2n1CC(F)(F)F [Compound 1018A, 3-methoxy-4-{[3-(4-{[(2S,4R)-2-methyloxan-4-yl]amino}-1-(2,2,2-trifluoroethyl)-1H-indol-2-yl)prop-2-yn-1-yl]amino}benzene-1-sulfonamide]"
4,+ (+ = 0 μM ≤ SC150 < 0.05 μM),"COCCN1CC[C@H](Nc2cccc3c2cc(C#CCNc2ccc(S(C)(=O)=O)cc2OC)n3CC(F)(F)F)[C@H](F)C1 [Compound 860A, N-[(3R,4S)-3-fluoro-1-(2-methoxyethyl)piperidin-4-yl]-2-{3-[(4-methanesulfonyl-2-methoxyphenyl)amino]prop-1-yn-1-yl}-1-(2,2,2-trifluoroethyl)-1H-indol-4-amine]"
5,+ (+ = 0 μM ≤ SC150 < 0.05 μM),"COC[C@H](O)CN1CCC(Nc2cccc3c2cc(C#CCNc2ccc(S(C)(=O)=O)cc2OC)n3CC(F)(F)F)CC1 [Compound 611A, (2R)-1-{4-[(2-{3-[(4-methanesulfonyl-2-methoxyphenyl)amino]prop-1-yn-1-yl}-1-(2,2,2-trifluoroethyl)-1H-indol-4-yl)amino]piperidin-1-yl}-3-methoxypropan-2-ol]"
6,+ (+ = 0 μM ≤ SC150 < 0.05 μM),"COc1cc(S(C)(=O)=O)ccc1NCC#Cc1cc2c(N[C@@H]3CCC(O)C[C@@H]3F)cccc2n1CC(F)(F)F (stereo partly drawn) [Compound 43A, (3S,4R)-3-fluoro-4-[(2-{3-[(4-methanesulfonyl-2-methoxyphenyl)amino]prop-1-yn-1-yl}-1-(2,2,2-trifluoroethyl)-1H-indol-4-yl)amino]cyclohexan-1-ol]"
7,+ (+ = 0 μM ≤ SC150 < 0.05 μM),CCN1CC[C@H](Nc2cccc3c2cc(C#CCNc2ccc(S(C)(=O)=O)cc2OC)n3CC(F)(F)F)[C@H](F)C1 [Compound 813A]
8,+ (+ = 0 μM ≤ SC150 < 0.05 μM),"COc1cc(S(=O)(=O)N2CCOCC2)ccc1NCC#Cc1cc2c(NC3CCN(C(C)=O)CC3)cccc2n1CC(F)(F)F [Compound 758A, 1-(4-{1[2-(3-{1[2-methoxy-4-(morpholine-4-sulfonyl)phenyl]amino}prop-1-yn-1-yl)-1-(2,2,2-trifluoroethyl)-1H-indol-4-yl]amino}piperidin-1-yl)ethan-1-one]"
9,+++ (+++ = 0.1 μM ≤ SC150 < 0.2 μM),"COc1cc(S(C)(=O)=O)ccc1NCC#Cc1c(C)c2c(NC3CCN(C)CC3)cccc2n1CC(F)(F)F [Compound 520A, 2-{3-[(4-methanesulfonyl-2-methoxyphenyl)amino]prop-1-yn-1-yl}-3-methyl-N-(1-methylpiperidin-4-yl)-1-(2,2,2-trifluoroethyl)-1H-indol-4-amine]"
10,+ (+ = 0 μM ≤ SC150 < 0.05 μM),"COc1cc(S(C)(=O)=O)ccc1NCC#Cc1cc2c(N[C@H]3CCN(C)C[C@@H]3O)cccc2n1CC(F)(F)F (racemic) [Compound 767A, rac-(3R,4R)-4-[(2-{3-[(4-methanesulfonyl-2-methoxyphenyl)amino]prop-1-yn-1-yl}-1-(2,2,2-trifluoroethyl)-1H-indol-4-yl)amino]-1-methylpiperidin-3-ol]"
11,+ (+ = 0 μM ≤ SC150 < 0.05 μM),"COCC(O)CN1CCC(Nc2cccc3c2cc(C#CCNc2ccc(S(=O)(=O)C4CC4)cc2OC)n3CC(F)(F)F)CC1 (stereo not shown) [Compound 685A, 1-(4-{[2-(3-{[4-(cyclopropanesulfonyl)-2-methoxyphenyl]amino}prop-1-yn-1-yl)-1-(2,2,2-trifluoroethyl)-1H-indol-4-yl]amino}piperidin-1-yl)-3-methoxypropan-2-ol]"
12,+ (+ = 0 μM ≤ SC150 < 0.05 μM),COCC(=O)N1CCC(Nc2cccc3c2cc(C#CCNc2ccc(S(N)(=O)=O)cc2OC)n3CC(F)(F)F)CC1 [Compound 575A]

# More lines, now with the values behind:
row,Structure (SMILES),SC150 (concentration of the compound required to increase the DNA binding activity by 50%)
1,"CCC(=O)OCC(CN1CCC(Nc2cccc3c2cc(C#CCNc2ccc(C(=O)NC)cc2OC)n3CC(F)(F)F)CC1)OC(=O)CC (stereo not shown) [Compound 656A, 1-(4-{[2-(3-{[2-methoxy-4-(methylcarbamoyl)phenyl]amino}prop-1-yn-1-yl)-1-(2,2,2-trifluoroethyl)-1H-indol-4-yl]amino}piperidin-1-yl)-3-(propanoyloxy)propan-2-yl propanoate]",+ (+ = 0 μM ≤ SC150 < 0.05 μM)
2,"CNC(=O)c1ccc(NCC#Cc2cc3c(NC4CCN(C)CC4)cccc3n2CC(F)(F)F)s1 [Compound 524A, N-methyl-5-((3-(4-((1-methylpiperidin-4-yl)amino)-1-(2,2,2-trifluoroethyl)-1H-indol-2-yl)prop-2-yn-1-yl)amino)thiophene-2-carboxamide]",+ (+ = 0 μM ≤ SC150 < 0.05 μM)
3,"COCCN(C)[C@H]1CC[C@H](Nc2cccc3c2cc(C#CCNc2ccc(S(N)(=O)=O)cc2OCC#N)n3CC(F)(F)F)CC1 [Compound 164A, 3-(cyanomethoxy)-4-{[3-(4-{[(1R,4R)-4-[(2-methoxyethyl) (methyl)amino]cyclo-hexyl]amino}-1-(2,2,2-trifluoroethyl)-1H-indol-2-yl)prop-2-yn-1-yl]amino}benzene-1-sulfonamide]",+ (+ = 0 μM ≤ SC150 < 0.05 μM)
4,"CS(=O)(=O)c1ccc(NCC#Cc2cc3c(N[C@H]4CC[C@@H](N5CC6(CCOCC6)C5)CC4)cccc3n2CC(F)(F)F)c(OCC#N)c1 [Compound 304A, 2-(5-methanesulfonyl-2-{[3-(4-{[(1S,4S)-4-{7-oxa-2-azaspiro[3.5]nonan-2-yl}cyclohexyl]amino}-1-(2,2,2-trifluoroethyl)-1H-indol-2-yl)prop-2-yn-1-yl]amino}phenoxy)acetonitrile]",+ (+ = 0 μM ≤ SC150 < 0.05 μM)
5,"COc1cc(C(=O)NC(C)COC(=O)C(C)C)ccc1NCC#Cc1cc2c(N[C@@H]3CCN(C)C[C@@H]3F)cccc2n1CC(F)(F)F (stereo partly drawn) [Compound 972A, 2-[(4-{[3-(4-{[(3S,4R)-3-fluoro-1-methylpiperidin-4-yl]amino}-1-(2,2,2-trifluoroethyl)-1H-indol-2-yl)prop-2-yn-1-yl]amino}-3-methoxyphenyl)formamido]propyl 2-methylpropanoate]",+ (+ = 0 μM ≤ SC150 < 0.05 μM)
6,"CS(=O)(=O)c1ccc(NCC#Cc2cc3c(N[C@H]4CC[C@H](N5CC6(COC6)C5)CC4)cccc3n2CC(F)(F)F)c(OCC(F)(F)F)c1 [Compound 231A, 2-(3-{[4-methane-sulfonyl-2-(2,2,2-trifluoro-ethoxy)phenyl]amino}prop-1-yn-1-yl)-N-[(1R,4R)-4-{2-oxa-6-azaspiro[3.3]heptan-6-yl}cyclohexyl]-1-(2,2,2-trifluoroethyl)-1H-indol-4-amine]",+ (+ = 0 μM ≤ SC150 < 0.05 μM)
7,"COc1cc(S(=O)(=O)Nc2ccon2)ccc1NCC#Cc1cc2c(N[C@H]3CC[C@@H](N(C)C)CC3)cccc2n1CC(F)(F)F [Compound 50A, 3-methoxy-N-(1,2-oxazol-3-yl)-4-{[3-(4-{[(1S,4S)-4-(dimethylamino)cyclohexyl]amino}-1-(2,2,2-trifluoro-ethyl)-1H-indol-2-yl)prop-2-yn-1-yl]amino}benzene-1-sulfonamide]",+ (+ = 0 μM ≤ SC150 < 0.05 μM)
8,"COc1cc(S(C)(=O)=O)ccc1NCC#Cc1cc2c(N(C)[C@H]3CCN(C)C[C@H]3F)cccc2n1CC(F)(F)F (racemic) [Compound 831A, rac-N-[(3R,4S)-3-fluoro-1-methylpiperidin-4-yl]-2-{3-[(4-methanesulfonyl-2-methoxyphenyl)amino]prop-1-yn-1-yl}-N-methyl-1-(2,2,2-trifluoroethyl)-1H-indol-4-amine]",+ (+ = 0 μM ≤ SC150 < 0.05 μM)
9,"C=C(C#N)Cn1c(C#CCNc2ccc(S(C)(=O)=O)cc2OC)cc2c(N[C@H]3CC[C@H](N(C)C)CC3)cccc21 [Compound 78A, 2-[(2-{3-[(4-methanesulfonyl-2-methoxyphenyl)amino]prop-1-yn-1-yl}-4-{[(1R,4R)-4-(dimethylamino)cyclohexyl]amino}-1H-indol-1-yl)methyl]prop-2-enenitrile]",+++ (+++ = 0.1 μM ≤ SC150 < 0.2 μM)
10,"Cc1cc(S(C)(=O)=O)ccc1NCC#Cc1cc2c(N[C@H]3CC[C@H](N4CC5(COC5)C4)CC3)cccc2n1CC(F)(F)F [Compound 283A, 2-{3-[(4-methanesulfonyl-2-methylphenyl)amino]prop-1-yn-1-yl}-N-[(1R,4R)-4-{2-oxa-6-azaspiro[3.3]heptan-6-yl}cyclohexyl]-1-(2,2,2-trifluoroethyl)-1H-indol-4-amine]",+ (+ = 0 μM ≤ SC150 < 0.05 μM)

# Source: US12428406B2 (PMV Pharmaceuticals, Inc., priority 2019, dated 2025)
